The text below walks through data of patent US10988459B2 (priority 2015, dated 2021).

Chain of human RIP1 kinase domain (2-375) (Q13546 2-375): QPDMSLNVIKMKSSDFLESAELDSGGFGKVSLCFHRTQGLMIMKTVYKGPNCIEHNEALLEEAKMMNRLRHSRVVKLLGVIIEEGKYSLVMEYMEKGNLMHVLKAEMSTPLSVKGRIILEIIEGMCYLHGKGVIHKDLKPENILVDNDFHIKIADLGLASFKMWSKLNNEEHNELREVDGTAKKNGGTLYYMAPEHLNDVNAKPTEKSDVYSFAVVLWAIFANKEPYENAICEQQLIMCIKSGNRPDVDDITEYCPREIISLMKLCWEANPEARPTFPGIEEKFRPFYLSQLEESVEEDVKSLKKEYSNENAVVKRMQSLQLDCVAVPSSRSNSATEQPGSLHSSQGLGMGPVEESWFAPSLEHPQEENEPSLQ

One experiment concerns the target human RIP1 kinase domain (2-375) (Homo sapiens (Human), UniProt Q13546). The experiment in a line: biochemical. Format: biochemical. The settings on record: Ki. An outline of the steps: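 Ki^app comes from Morrison tight-binding fits of fractional activity versus compound concentration. Activity was read as ADP production, via tracer displacement lowering fluorescence polarization (633 nm laser). Conditions: 2 h, 50 nM insect-cell-expressed enzyme, 50 uM ATP, 30 mM MgCl2, 1 mM DTT, 0.5% DMSO, pH 7.5 Hepes.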
For `CN1C(=O)[C@@H](NC(=O)c2cn3c(C(F)(F)F)cccc3n2)COc2ccccc21` (single isomer, unassigned) [Example 736], the Ki is 70 nM.

Still in this experiment, the particulars now being: Table 3; apparent Ki (Morrison tight-binding fit); 50 nM RIP1 kinase domain, 50 uM ATP, 2 hours incubation; read-out: Ki.
`Cc1cc2n(n1)CC[C@H](NC(=O)c1ncn3ccc(C(F)(F)F)cc13)C(=O)N2C` (stereo in doubt) [Example 337, N-(2,4-dimethyl-5-oxo-5,6,7,8-tetrahydro-4H-pyrazolo[1,5-a][1,3]diazepin-6-yl)-7-(trifluoromethyl)imidazo[1,5-a]pyridine-1-carboxamide]: the Ki was determined as 536 nM.

The same experiment, now with this note: Table 5; apparent Ki (Morrison tight-binding fit); 50 nM RIP1 kinase domain, 50 uM ATP, 2 hours incubation; read-out: Ki.
In the case of `CCn1cc(-c2cc3n(n2)CCC(NC(=O)c2ncn(Cc4ccccc4)n2)C(=O)N3C)cn1` (single isomer, unassigned) [Example 698, 1-benzyl-N-[2-(1-ethylpyrazol-4-yl)-4-methyl-5-oxo-7,8-dihydro-6H-pyrazolo[1,5-a][1,3]diazepin-6-yl]-1,2,4-triazole-3-carboxamide], the Ki came to 27 nM.

Take `CC(C)[C@@H]1CCCc2nc(C(=O)N[C@H]3COc4cc(F)cc(F)c4NC3=O)nn21` (single isomer, unassigned) [Example 715]: the Ki was 5 nM.

For the molecule `CCC[C@@H]1CCCc2nc(C(=O)N[C@H]3COc4cc(F)cc(F)c4NC3=O)nn21` (single isomer, unassigned) [Example 716], the Ki is 3 nM.

Take `CC(C)[C@H]1CCCc2nc(C(=O)N[C@H]3COc4cc(F)cc(F)c4NC3=O)nn21` (single isomer, unassigned) [Example 717]: the Ki worked out at 207 nM.

Turning to `CN1C(=O)C(NC(=O)c2ncn(Cc3ccccc3)n2)CCn2nc(CN3CCC(F)(F)C3)cc21` (single isomer, unassigned) [Example 719, 1-benzyl-N-[2-[(3,3-difluoropyrrplidin-1-yl)methyl]-4-methyl-5-oxo-7,8-dihydro-6H-pyrazolo[1,5-a][1,3]diazepin-6-yl]-1,2,4-triazole-3-carboxamide], the Ki was 214 nM.

Consider `CN1C(=O)[C@@H](NC(=O)c2ncn(Cc3ccccc3)n2)CCn2nc(CN3CCOCC3)cc21` (single isomer, unassigned) [Example 720], for which the Ki was determined as 155 nM.

With `CN1C(=O)C(NC(=O)c2ncn(Cc3ccccc3)n2)CCn2nc(CN3CC(F)C3)cc21` (single isomer, unassigned) [Example 721, 1-benzyl-N-[2-[(3-fluoroazetidin-1-yl)methyl]-4-methyl-5-oxo-7,8-dihydro-6H-pyrazolo[1,5-a][1,3]diazepin-6-yl]-1,2,4-triazole-3-carboxamide], the Ki is 355 nM.

For the molecule `COC1CN(Cc2cc3n(n2)CCC(NC(=O)c2ncn(Cc4ccccc4)n2)C(=O)N3C)C1` (single isomer, unassigned) [Example 722, 1-benzyl-N-[2-[(3-methoxyazetidin-1-yl)methyl]-4-methyl-5-oxo-7,8-dihydro-6H-pyrazolo[1,5-a][1,3]diazepin-6-yl]-1,2,4-triazole-3-carboxamide], the Ki was 444 nM.

`COCCNCc1cc2n(n1)CCC(NC(=O)c1ncn(Cc3ccccc3)n1)C(=O)N2C` (single isomer, unassigned) [Example 724, 1-benzyl-N-[2-[(2-methoxyethylamino)methyl]-4-methyl-5-oxo-7,8-dihydro-6H-pyrazolo[1,5-a][1,3]diazepin-6-yl]-1,2,4-triazole-3-carboxamide]: the Ki was found to be 598 nM.

Turning to `COC1CN(Cc2cc3n(n2)CC[C@H](NC(=O)c2ncn(Cc4ccccc4)n2)C(=O)N3C)C1` (single isomer, unassigned) [Example 725], the Ki amounted to 172 nM.

For `CN1C(=O)[C@@H](NC(=O)c2ncn(Cc3ccccc3)n2)CCn2nc(CN3CC(F)C3)cc21` (single isomer, unassigned) [Example 726], the Ki came out at 142 nM.

Take `CN1C(=O)[C@@H](NC(=O)c2ncn(Cc3ccccc3)n2)CCn2nc(CN3CCC(F)(F)C3)cc21` (single isomer, unassigned) [Example 727]: the Ki stood at 59 nM.

`COCCNCc1cc2n(n1)CC[C@H](NC(=O)c1ncn(Cc3ccccc3)n1)C(=O)N2C` (single isomer, unassigned) [Example 728]: the Ki turned out to be 225 nM.

With `CN1C(=O)[C@@H](NC(=O)c2nc3n(n2)CCN[C@@H]3c2ccccc2)COc2ccccc21` (single isomer, unassigned) [Example 729], the Ki was found to be 74 nM.

Consider `CN1C(=O)[C@@H](NC(=O)c2nc3n(n2)CCN(C)C3c2ccccc2)COc2ccccc21` (single isomer, unassigned) [Example 730], for which the Ki amounted to 112 nM.

With `CN1C(=O)[C@@H](NC(=O)c2ncn(Cc3ccccc3)n2)CCn2nc(CO)cc21` (single isomer, unassigned) [Example 732], the Ki turned out to be 61 nM.

With `CN1C(=O)[C@@H](NC(=O)c2ncn(Cc3ccccc3)n2)CCn2nc(CNCC(F)(F)F)cc21` (single isomer, unassigned) [Example 733], the Ki stood at 68 nM.

Regarding `CN1C(=O)[C@@H](NC(=O)c2nc3n(n2)[C@@H](c2ccccc2)CCC3)COc2ccccc21` (single isomer, unassigned) [Example 734], the Ki stood at 149 nM.

For the molecule `CN1C(=O)[C@H](NC(=O)c2ncn(Cc3ccccc3)n2)CCn2nc(CCCN3CCOCC3)cc21` (single isomer, unassigned) [Example 738], the Ki was found to be 4020 nM.

Consider `CN1C(=O)[C@@H](NC(=O)c2cn(Cc3ccccc3)cn2)CCn2nccc21` (single isomer, unassigned) [Example 750], for which the Ki came to 66 nM.

Consider `CC[C@]1(C)OCc2cnc(C(=O)N[C@H]3COc4ccccc4N(C)C3=O)cc21` (single isomer, unassigned) [Example 764], for which the Ki is 267 nM.

On to `CC[C@@]1(C)OCc2cnc(C(=O)N[C@H]3COc4ccccc4N(C)C3=O)cc21` (single isomer, unassigned) [Example 765], for which the Ki was determined as 15 nM.

Regarding `COCCNCc1cc2n(n1)CCC(NC(=O)c1ncn(Cc3ccccc3)n1)C(=O)N2C` (single isomer, unassigned) [Example 780, 1-benzyl-N-(2-(((2-methoxyethyl)amino)methyl)-4-methyl-5-oxo-5,6,7,8-tetrahydro-4H-pyrazolo[1,5-a][1,3]diazepin-6-yl)-1H-1,2,4-triazole-3-carboxamide], the Ki is 598 nM.

Take `COCCNCc1cc2n(n1)CCC(NC(=O)c1ncn(Cc3ccccc3)n1)C(=O)N2C` (single isomer, unassigned) [Example 784]: the Ki is 225 nM.

With `CN1C(=O)[C@@H](NC(=O)c2nc3n(n2)CCN[C@@H]3c2ccccc2)COc2ccccc21` (single isomer, unassigned) [Example 785], the Ki turned out to be 74 nM.

For `CN1C(=O)[C@@H](NC(=O)c2ncn(Cc3ccccc3)n2)CCn2nc(CO)cc21` (single isomer, unassigned) [Example 788], the Ki came to 61 nM.

Take `CN1C(=O)[C@@H](NC(=O)c2ncn(Cc3ccccc3)n2)CCn2nc(CNCC(F)(F)F)cc21` (single isomer, unassigned) [Example 789]: the Ki was determined as 68 nM.

For `CN1C(=O)[C@@H](NC(=O)c2nc3n(n2)[C@@H](c2ccccc2)CCC3)COc2ccccc21` (single isomer, unassigned) [Example 790], the Ki was determined as 149 nM.

With `CN1C(=O)[C@@H](NC(=O)c2nc3n(n2)C(c2ccccc2)CCC3)COc2ccccc21` (single isomer, unassigned) [Example 791], the Ki stood at 13 nM.

As to `CN1C(=O)[C@@H](NC(=O)c2cn3c(C(F)(F)F)cccc3n2)COc2ccccc21` (single isomer, unassigned) [Example 792], the Ki was found to be 70 nM.

The experiment is the same for the next values; noted with them: human RIP1 kinase domain (2-375), Transcreener ADP assay, 50 uM ATP, 2 hours incubation; read-out: RIP1 Ki.
Regarding `CC(c1ccc(F)cc1)n1cnc(C(=O)N[C@H]2CCn3nc(C4CC4)cc3N(C)C2=O)n1` (stereo in doubt) [Example 290, (S)—N-(2-cyclopropyl-4-methyl-5-oxo-5,6,7,8-tetrahydro-4H-pyrazolo[1,5-a][1,3]diazepin-6-yl)-1-(1-(4-fluorophenyl)ethyl)-1H-1,2,4-triazole-3-carboxamide], the Ki is 117 nM.

As to `CN1C(=O)[C@@H](NC(=O)c2ncn(CC3CC3(F)F)n2)CCn2nc(C3CC3)cc21` (stereo in doubt) [Example 291, (S)—N-(2-cyclopropyl-4-methyl-5-oxo-5,6,7,8-tetrahydro-4H-pyrazolo[1,5-a][1,3]diazepin-6-yl)-1-((2,2-difluorocyclopropyl)methyl)-1H-1,2,4-triazole-3-carboxamide], the Ki amounted to 820 nM.

In the case of `CC(c1ccccc1)n1cnc(C(=O)N[C@H]2CCn3nc(C4CC4)cc3N(C)C2=O)n1` (stereo in doubt) [Example 292, (S)—N-(2-cyclopropyl-4-methyl-5-oxo-5,6,7,8-tetrahydro-4H-pyrazolo[1,5-a][1,3]diazepin-6-yl)-1-(1-phenylethyl)-1H-1,2,4-triazole-3-carboxamide], the Ki turned out to be 100 nM.

Still in this experiment, the particulars now being: tight-binding apparent inhibition constant; human RIP1 kinase domain (2-375) 50 nM, 50 uM ATP, 2 hours; read-out: Ki.
On to `CN1C(=O)[C@@H](NC(=O)c2nc3n(n2)[C@H](c2ccccc2)CC3)CCn2nccc21` (single isomer, unassigned) [Example 614], for which the Ki was determined as 790 nM.

Turning to `CN1C(=O)[C@@H](NC(=O)c2nc3n(n2)[C@@H](c2ccccc2)CC3)CCn2nccc21` (single isomer, unassigned) [Example 624], the Ki was 20 nM.

For `O=C(N[C@H]1CCc2cc(F)cc(F)c2NC1=O)c1nc2n(n1)CC[C@@H]2c1ccccc1` (single isomer, unassigned) [Example 627], the Ki was found to be 160 nM.

For `O=C(N[C@H]1CCc2cc(F)cc(F)c2NC1=O)c1nc2n(n1)CC[C@H]2c1ccccc1` (single isomer, unassigned) [Example 628], the Ki turned out to be 5 nM.

Turning to `CN1C(=O)[C@H](NC(=O)c2ncn(Cc3ccc(Cl)cc3)n2)CCn2nc(C3CC3)cc21` (single isomer, unassigned) [Example 671], the Ki is 8200 nM.
